Measured values taken from article PMC11091117, “A fluorescently-tagged tick kinin neuropeptide triggers peristalsis and labels tick midgut muscles” (Scientific Reports, 2024).
Entries after “also recorded” stand apart in the source; their conditions may differ.

System: tick midgut
Assay: Tick midgut contraction assay with EthoVision video analysis
Set-up: species or system Rhipicephalus sanguineus
Source text: Individual female ticks were immobilized on a Petri dish filled with wax by submerging their legs in melted wax heated with a soldering pencil (Electronic Control Soldering Station EC 1000, Weller, Apex, North Carolina, USA). Females were dissected under physiological saline following the protocol described by Tidwell et al.[51]. The tick was cut along the edge of the scutum/alloscutum using a stainless steel #12 scalpel blade (Integra Miltex, York, PA, USA), after which the scutum was removed with a pair of fine forceps. To expose the midgut for removal, the tracheae, Malpighian tubules, ovaries, rectal sac, and synganglion were removed with fine forceps in that order. The midgut was then carefully removed and placed into 200 µL of fresh tick saline (See Reagents and Peptides) on a single gasketed incubation chamber (500 µL, Size 22 × 40 mm, Electron Microscopy Sciences, Hatfield, PA). The midguts were then rinsed three times with the physiological tick saline for subsequent fluorescent labeling or activity experiments.
Midguts were dissected from immobilized female ticks under tick saline, as described under the Midgut Dissection. Ten different midguts were used for each of the two treatments, and ticks were of the same age and batch and had been maintained under the same conditions. Dissected midguts were placed individually into 200 µL of tick saline for 10 min at 28 °C on a gasketed glass coverslip (500 µL, Size 22 × 40 mm) serving as incubation chamber. […] After the final wash and removal of saline, 200 µL of saline were added, and a microscopy coverslip (24 × 60 mm, VWR, Radnor, PA) was placed over the gasketed portion of the incubation chamber, which height (0.5 mm) fits to prevent the midgut from floating, but still allows midgut peristalsis. The midguts were observed and filmed under a dissecting microscope (Olympus SZ61, Japan) equipped with an Infinity 5 camera (Teledyne Lumenera, Ottawa, ON, Canada). All videos were recorded for 1 min with the INFINITY ANALYZE 7 software (Teledyne Lumenera) at 30 frames/second with a 2464 × 2056 resolution. The field of view in all videos recorded represents 4 × 3.5 mm to capture the entire tick midguts under saline. All video files in Windows Media Video (.wmv) format obtained from the Infinity Analyze 7 software were converted to the MP4 format using CloudConvert (cloudconvert.com, Lunaweb, Munich, Germany) for analyses with the EthoVision XT 17 software (Noldus Information Technology, Wageningen, The Netherlands).
We used the EthoVision 17 XT software to quantify the “activity” (pixel change) of the midguts from the videos recorded. This software defines activity as the percentage of pixels that have changed in the entire defined arena between the current image and previous image. The videos are recorded in 2464 × 2056 resolution and the arena is set to be the entire video screen. Video files were uploaded into the program and analyzed starting from time zero to the end of the 60 s video. Detection settings for activity included the activity threshold which was set to 5 to achieve zero detection when the midgut was immobile. Although the video captured 30 frames (images) per s, for the video analysis we chose a “sample rate” of 7 samples /s, with sample rate being the number of images from the video the EthoVision program analyzes per second. To calculate activity, each pixel of the video image was compared from one image to the next, and the proportion of pixel changes was calculated by dividing the number of pixels changed from one image to the next by the total number of pixels in the image. Care was given for the midgut to occupy most of the arena, as the activity analyses will reflect the midgut movement as a proportion of the total arena. Midgut activity is observed as pixel changes, which are represented by the red-colored pixels in the S4 video. The mean pixel change per midgut was then determined by averaging the pixel changes from all samples within the recording period. […]

TMR-C-GTGEDQAFSPWGamide [TMR-RK8]
midgut contractions, S4 Video (in words) (1 µM TMR-RK8, after 1 min of exposure, 4X speed): Rapid contractions were observed shortly after treatment
midgut peristalsis/contractions (in words) (10 µM, 1 min, 28 °C, midguts of unfed females ex vivo, video recorded 1 min): inducing significant midgut peristalsis; also recorded: induced peristalsis
mean activity (mean pixel change, percentage of pixels changed in arena) (10 µM, 1 min, rinsed twice, 28 °C, tick saline, 60 s video, 7 samples/s, EthoVision XT 17, activity threshold 5, N = 10 midguts): 1%
mean activity of midguts compared to TMR-Scrambled (in words) (10 µM, N = 10 vs N = 10, for the duration of the videos): higher mean activity
pixels changing from each sample to the next (of 5,065,984 pixels per sample, 10 µM, 1 min, 28 °C, N = 10): about 50,660 pixels
movement of midguts relative to TMR-Scrambled treated midguts (ratio of mean activity, 10 µM, N = 10 per treatment): 10 factor
